From ChEMBL document CHEMBL5241054, “Effective anti-aromatase therapy to battle against estrogen-mediated breast cancer: Comparative SAR/QSAR assessment on steroidal aromatase inhibitors” (Eur J Med Chem, 2020)

Target: T1, Aromatase (Homo sapiens, UniProt P11511)
T1 sequence (P11511 whole entry): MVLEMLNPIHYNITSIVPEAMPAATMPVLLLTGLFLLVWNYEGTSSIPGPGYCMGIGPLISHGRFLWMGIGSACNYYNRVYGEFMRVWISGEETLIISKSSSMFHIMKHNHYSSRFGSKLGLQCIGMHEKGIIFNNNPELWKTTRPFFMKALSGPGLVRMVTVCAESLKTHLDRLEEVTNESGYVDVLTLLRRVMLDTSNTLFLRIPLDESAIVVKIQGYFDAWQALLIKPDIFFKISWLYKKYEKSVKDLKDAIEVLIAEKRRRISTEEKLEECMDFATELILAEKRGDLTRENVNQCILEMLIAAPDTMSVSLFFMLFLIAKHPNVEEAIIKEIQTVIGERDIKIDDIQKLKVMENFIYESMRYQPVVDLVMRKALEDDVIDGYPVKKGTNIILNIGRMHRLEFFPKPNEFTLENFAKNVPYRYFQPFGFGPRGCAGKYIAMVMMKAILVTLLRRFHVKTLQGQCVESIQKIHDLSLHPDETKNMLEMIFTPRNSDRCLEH

| Compound | IC50 |
| --- | --- |
| CCCC[C@@H]1C[C@@H]2[C@H](CC[C@]3(C)C(=O)CC[C@@H]23)[C@@]2(C)CCC(=O)C=C12 | 511 nM |
| C[C@]12CCC(=O)C=C1C[C@H](CCc1ccccc1)[C@@H]1[C@@H]2CC[C@]2(C)C(=O)CC[C@@H]12 | 40.2 nM |
| CCCCCC1=C[C@@H]2[C@H](CC[C@]3(C)C(=O)CC[C@@H]23)[C@@]2(C)CCC(=O)C=C12 | 220 nM |
| CCCCCC[C@H]1C[C@@H]2[C@H](CC[C@]3(C)C(=O)CC[C@@H]23)[C@@]2(C)CCCC=C12 | 8990 nM |
| CCCCC[C@H]1C[C@@H]2[C@H](CC[C@]3(C)C(=O)CC[C@@H]23)[C@@]2(C)CCC(=O)C=C12 | 400 nM |
| C[C@]12CC[C@H]3[C@@H](CCC4=CCCC[C@@]43CO)[C@@H]1CCC2O (some centres not stated) | 2300 nM |
| C[C@]12CC[C@H]3[C@@H](CC(=O)C4=CCCC[C@@]43C=O)[C@@H]1CCC2=O | 5790 nM |
| C[C@]12CC[C@H]3[C@@H](CCC4=CC(=O)CC[C@@]43C(F)F)[C@@H]1CCC2=O | 4000 nM |
| C[C@]12CC[C@H]3[C@@H](CC(=O)C4=CC(=O)CC[C@@]43C)[C@@H]1CC[C@@H]2OC(=O)CBr | 42000 nM |
| CCCCOC1=C[C@@]2(C)C(=CC1=O)CC[C@@H]1[C@@H]2CC[C@]2(C)C(=O)CC[C@@H]12 | 29600 nM |
| C[C@]12CC[C@H]3[C@@H](CCC4=CCCC[C@@]43CO)[C@@H]1C[C@@H](O)[C@@H]2O | 971000 nM |
| CCCCCC[C@@H]1C[C@@]2(C)C(=CC1=O)CC[C@@H]1[C@@H]2CC[C@]2(C)C(=O)CC[C@@H]12 | 10400 nM |
| CCCCCCCC1=C[C@@H]2[C@H](CC[C@]3(C)C(=O)CC[C@@H]23)[C@@]2(C)C=CC(=O)C=C12 | 230 nM |
| C[C@]12CC[C@H]3[C@@H](CCC4=CC(=O)CC[C@@]43CCCl)[C@@H]1CCC2=O | 8000 nM |
| C[C@H]1C[C@@H]2[C@H](CC[C@]3(C)C(O)CC[C@@H]23)[C@@]2(C)CCCC=C12 (some centres not stated) | 260 nM |
| C[C@]12CCC(=O)c3nn(Cc4ccccc4)c(c31)C[C@@H]1[C@@H]2CC[C@]2(C)C(=O)CC[C@@H]12 | 245 nM |
| CCCCCCCC[C@@H]1C[C@@H]2[C@H](CC[C@]3(C)C(=O)CC[C@@H]23)[C@@]2(C)CCC(=O)C=C12 | 1800 nM |
| CCCCC[C@@H]1C[C@@H]2[C@H](CC[C@]3(C)C(=O)CC[C@@H]23)[C@@]2(C)C=CC(=O)C=C12 | 54 nM |
| CCCCCCCC1=C[C@@H]2[C@H](CC[C@]3(C)C(=O)CC[C@@H]23)[C@@]2(C)CCC(=O)C=C12 | 430 nM |
| CC1C[C@H]2[C@@H]3CC[C@H](O)[C@@]3(C)CC[C@@H]2[C@@]2(C)C=CC(=O)C=C12 (some centres not stated) | 67 nM |
| C[C@]12C=CC(=O)C=C1C[C@@H](CCCc1ccc(N)cc1)[C@@H]1[C@@H]2CC[C@]2(C)C(=O)CC[C@@H]12 | 158 nM |
| C[C@]12CCC3[C@@H](CC(=O)[C@]45O[C@H]4CCC[C@]35C=O)C1CCC2=O (some centres not stated) | 150000 nM |
| C[C@]12CCC(=O)c3nn(Cc4cccc([N+](=O)[O-])c4)c(c31)C[C@@H]1[C@@H]2CC[C@]2(C)C(=O)CC[C@@H]12 | 490 nM |
| C[C@]12CCC(=O)C=C1[C@@H]1N[C@@H]1[C@@H]1[C@@H]2CC[C@]2(C)C(=O)CC[C@@H]12 | 49200 nM |
| CC(C)[C@@H]1C[C@@H]2[C@H](CC[C@]3(C)C(=O)CC[C@@H]23)[C@@]2(C)CCC(=O)C=C12 | 1100 nM |
| C[C@]12CCCCC1=CC[C@@H]1[C@@H]2CC[C@]2(C)C(O)CC[C@@H]12 (some centres not stated) | 30000 nM |

| Compound | IC50 |
| --- | --- |
| CCO[C@H]1C[C@@H]2[C@H](CC[C@]3(C)C(=O)CC[C@@H]23)c2ccc(O)cc21 | 74000 nM |
| C[C@]12CCC(=O)c3c1c(nn3Cc1ccc([N+](=O)[O-])cc1)C[C@@H]1[C@@H]2CC[C@]2(C)C(=O)CC[C@@H]12 | 658 nM |
| C[C@H]1C[C@@H]2[C@H](CC[C@]3(C)C(=O)CC[C@@H]23)[C@@]2(C)CCC(=O)C=C12 | 350 nM |
| C[C@]12C=CC(=O)C=C1C(Cc1ccccc1)=C[C@@H]1[C@@H]2CC[C@]2(C)C(=O)CC[C@@H]12 | 92.9 nM |
| C[C@]12CCC(=O)C=C1[C@@H](CCCc1ccccc1)C[C@@H]1[C@@H]2CC[C@]2(C)C(=O)CC[C@@H]12 | 400000 nM |
| C[C@]12CCC(=O)C=C1[C@@H](c1ccccc1)C[C@@H]1[C@@H]2CC[C@]2(C)C(=O)CC[C@@H]12 | 1100 nM |
| C[C@]12CCC(=O)C=C1[C@@H](CCc1ccccc1)C[C@@H]1[C@@H]2CC[C@]2(C)C(=O)CC[C@@H]12 | 140000 nM |
| C[C@]12CC[C@H]3[C@@H](CCC4=CCCC[C@@]43C)[C@@H]1C[C@@H](O)[C@@H]2O | 700000 nM |
| C[C@]12CCC(=O)C=C1C[C@@H](SCCc1ccccc1)[C@@H]1[C@@H]2CC[C@]2(C)C(=O)CC[C@@H]12 | 61.9 nM |
| Cc1ccc(S(=O)(=O)N2[C@@H]3[C@@H]4[C@H](CC[C@]5(C)C(=O)CC[C@@H]45)[C@@]4(C)CCC(=O)C=C4[C@@H]32)cc1 (some centres not stated) | 53800 nM |
| C[C@]12CCC(=O)C=C1CC[C@@H]1[C@@H]2CC[C@]2(C)C(=O)CC[C@@H]12 [ANDROSTENEDIONE] | 1000 nM |
| C[C@]12C=C(Cc3ccccc3)C(=O)C=C1CC[C@@H]1[C@@H]2CC[C@]2(C)C(=O)CC[C@@H]12 | 86500 nM |
| C[C@]12C=CC(=O)C(Sc3ccccc3)=C1CC[C@@H]1[C@@H]2CC[C@]2(C)C(=O)CC[C@@H]12 | 500 nM |
| C[C@]12CC[C@H]3[C@@H](CCC4=CC(=O)CC[C@@]43CI)[C@@H]1CCC2=O | 4100 nM |
| Cc1ccc(CCC2=C[C@@]3(C)C(=CC2=O)CC[C@@H]2[C@@H]3CC[C@]3(C)C(=O)CC[C@@H]23)cc1 | 6350 nM |
| CCC1=C[C@@H]2[C@H](CC[C@]3(C)C(=O)CC[C@@H]23)[C@@]2(C)C=CC(=O)C=C12 | 42 nM |
| C[C@]12C=CC(=O)C(Sc3ccccc3)=C1C=C[C@@H]1[C@@H]2CC[C@]2(C)C(=O)CC[C@@H]12 | 65 nM |
| C[C@]12C[C@@H](CCCCc3ccccc3)C(=O)C=C1CC[C@@H]1[C@@H]2CC[C@]2(C)C(=O)CC[C@@H]12 | 222000 nM |
| C[C@]12CC[C@@H]3c4cc(NC(=O)c5ccccn5)c(O)cc4CC[C@H]3[C@@H]1CCC2=O | 209000 nM |
| C[C@]12CC[C@H]3[C@@H](C[C@H]4O[C@]45C(=O)CCC[C@]35C=O)C1CCC2=O (some centres not stated) | 210000 nM |
| C[C@]12CCCCC1=CC[C@@H]1[C@@H]2CC[C@]2(C)C(=O)CC[C@@H]12 | 681 nM |
| C[C@]12CC[C@H]3[C@@H](C=CC45OC4C(=O)CC[C@]35C)[C@@H]1CCC2=O (some centres not stated) | 15300 nM |
| CCCCCC1=C[C@@H]2[C@H](CC[C@]3(C)C(=O)CC[C@@H]23)[C@@]2(C)C=CC(=O)C=C12 | 140 nM |
| CC[C@]12C=CC(=O)C=C1C=C[C@H]1[C@@H]3CCC(=O)[C@@]3(C)CC[C@@H]12 | 360 nM |
| CCCCC[C@@H]1C[C@@H]2[C@H](CC[C@]3(C)C(=O)CC[C@@H]23)[C@@]2(C)CCC(=O)C=C12 | 230 nM |
| CC[C@@H]1C[C@@H]2[C@H](CC[C@]3(C)C(=O)CC[C@@H]23)[C@@]2(C)CCCC=C12 | 320 nM |
